Here are results for seven compounds from PubChem BioAssay (NCI).

The structures appear in SMILES notation.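 Tested at 5 concentrations; 48 h exposure; 96-well plates; endpoints linearly interpolated, else capped at highest concentration. GI50: concentration for 50% inhibition of growth. TGI is the concentration that stops growth completely.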

Among the test systems are TK-10 renal; OVCAR-5 ovarian; SK-MEL-2 melanoma; SR leukemia; SK-OV-3 ovarian; DU-145 prostate; RPMI-8226 leukemia; COLO 205 colon; U251 CNS; HS 578T breast.
Common to all, as to assay: growth of human tumour cells (NCI), 48 h

Take `CCCCCCNC(=O)n1cc(F)c(=O)[nH]c1=O`: the GI50 was 4.71 µM in the assay with TK-10 renal; 12.8 µM with OVCAR-5 ovarian; 12 µM in the assay with SK-MEL-2 melanoma; 1.44 µM in the assay on SR leukemia; 11.1 µM with SK-OV-3 ovarian; 5.38 µM in the assay with DU-145 prostate. In addition, the GI50 in the assay with RPMI-8226 leukemia is 2.38 µM; in the assay on COLO 205 colon, 2.09 µM; in the assay with U251 CNS it was 4.27 µM; in the assay with HS 578T breast it was 52 µM. Further, the TGI with TK-10 renal is 22.7 µM; with OVCAR-5 ovarian, 37.2 µM; in the assay with SK-MEL-2 melanoma, 35.2 µM; with SR leukemia, 21.3 µM; in the assay on SK-OV-3 ovarian, 91.1 µM; with DU-145 prostate, > 100 µM. In addition, the TGI in the assay with RPMI-8226 leukemia is 32.2 µM; with COLO 205 colon, 18.4 µM; with U251 CNS it was 17.5 µM; in the assay with HS 578T breast it was > 100 µM.
With `COC(=O)c1ccc2c(c1)C(=O)c1c-2n(CCCN)c(=O)c2cc(OC)c(OC)cc12`, the GI50 in the assay with TK-10 renal is 16.9 µM; in the assay on OVCAR-5 ovarian it was 18.8 µM; with SK-MEL-2 melanoma it was 31.2 µM; in the assay with SR leukemia it was 1.98 µM; in the assay with SK-OV-3 ovarian, 20.3 µM; in the assay with DU-145 prostate, 7.89 µM. Also, the GI50 with RPMI-8226 leukemia was 5.77 µM; with COLO 205 colon it was 12.4 µM; in the assay on U251 CNS it was 16 µM; in the assay with HS 578T breast, 18.5 µM. Also, the TGI in the assay on TK-10 renal is 37.3 µM; with OVCAR-5 ovarian it was 33.9 µM; in the assay with SK-MEL-2 melanoma, > 84.5 µM; in the assay on SR leukemia, 4.39 µM; with SK-OV-3 ovarian it was 49.4 µM; in the assay on DU-145 prostate, 22.8 µM. Further, the TGI with RPMI-8226 leukemia stood at 12.5 µM; in the assay on COLO 205 colon it was 27.7 µM; with U251 CNS, 32.1 µM; in the assay on HS 578T breast, 42.1 µM.
As to `CCCCN(CC)c1ncnc2ccc(Br)cc12`, the GI50 is 19.7 µM in the assay with TK-10 renal; 20.5 µM with OVCAR-5 ovarian; 29.5 µM with SK-MEL-2 melanoma; 8.42 µM with SR leukemia; 18.8 µM in the assay with SK-OV-3 ovarian; 19.4 µM with DU-145 prostate. Also, the GI50 with RPMI-8226 leukemia was 3.71 µM; in the assay on COLO 205 colon it was 20.4 µM; with U251 CNS, 18.2 µM; in the assay on HS 578T breast, 13.1 µM. For the same compound, the TGI with TK-10 renal is 39.8 µM; in the assay with OVCAR-5 ovarian, 49.8 µM; in the assay with SK-MEL-2 melanoma, > 100 µM; with SR leukemia it was 34.2 µM; in the assay with SK-OV-3 ovarian, 49.4 µM; with DU-145 prostate, 46.8 µM. The TGI with RPMI-8226 leukemia amounted to 22.1 µM; in the assay on COLO 205 colon it was 63.7 µM; in the assay with U251 CNS, 44.9 µM; with HS 578T breast it was 35.9 µM.
Take `CC(=O)c1cc(-c2ccccc2N)n(-c2ccc3c(c2)OCO3)c1C`: the GI50 is 0.623 µM in the assay with TK-10 renal; 0.268 µM with OVCAR-5 ovarian; 0.31 µM with SK-MEL-2 melanoma; 0.223 µM in the assay on SR leukemia; 0.292 µM in the assay on SK-OV-3 ovarian; 0.0408 µM in the assay with DU-145 prostate. In addition, the GI50 in the assay with RPMI-8226 leukemia was 0.351 µM; with COLO 205 colon, 0.328 µM; with U251 CNS, 0.277 µM; with HS 578T breast, 0.303 µM. The TGI in the assay with TK-10 renal is > 100 µM; in the assay with OVCAR-5 ovarian, > 100 µM; in the assay with SR leukemia, 19.1 µM; with SK-OV-3 ovarian it was 45.3 µM; in the assay with DU-145 prostate it was > 100 µM; in the assay on RPMI-8226 leukemia, 19.3 µM. Further, the results for the TGI in the assay with COLO 205 colon, with U251 CNS and in the assay with HS 578T breast were 1.32 µM, > 100 µM and > 85.4 µM, respectively.
As to `CCCCNC(=O)Oc1ccc(/C(=C(/CC)Cc2ccccc2)c2ccc(OCCN3CCCCCC3)cc2)cc1`, the GI50 in the assay on TK-10 renal was 26.7 µM; with OVCAR-5 ovarian it was 96.3 µM; with SK-MEL-2 melanoma, 71.9 µM; in the assay on SR leukemia it was 14.6 µM; in the assay with SK-OV-3 ovarian it was > 100 µM; in the assay on DU-145 prostate it was 41.7 µM. Also, the GI50 in the assay with RPMI-8226 leukemia is 24 µM; with COLO 205 colon, 20.6 µM; in the assay with U251 CNS, 18.7 µM; with HS 578T breast it was 19.7 µM. In addition, the TGI with TK-10 renal was 90.5 µM; in the assay with OVCAR-5 ovarian, > 100 µM; in the assay with SK-MEL-2 melanoma, > 100 µM; with SR leukemia it was 41.1 µM; in the assay with SK-OV-3 ovarian, > 100 µM; with DU-145 prostate it was > 100 µM. In addition, the TGI was found to be 52.8 µM with RPMI-8226 leukemia, 39.7 µM in the assay on COLO 205 colon, 35 µM in the assay with U251 CNS and 44.1 µM in the assay on HS 578T breast.
`CC(=O)c1cccc(-c2cccc(-c3ccn(CCN4CCOCC4)n3)c2)c1`: the GI50 in the assay with TK-10 renal, in the assay on OVCAR-5 ovarian, in the assay with SK-MEL-2 melanoma, with SR leukemia, in the assay with SK-OV-3 ovarian and in the assay on DU-145 prostate was > 20 µM each time. Besides, the GI50 with RPMI-8226 leukemia, in the assay with COLO 205 colon, in the assay on U251 CNS and in the assay on HS 578T breast was > 20 µM each time. The TGI in the assay with TK-10 renal, in the assay on OVCAR-5 ovarian, with SK-MEL-2 melanoma, in the assay on SR leukemia, in the assay on SK-OV-3 ovarian and in the assay with DU-145 prostate was > 20 µM throughout. Besides, the TGI in the assay with RPMI-8226 leukemia, in the assay with COLO 205 colon, in the assay on U251 CNS and in the assay with HS 578T breast was > 20 µM in each case.
For the compound `CCCCN(CCCC)CCc1c(C)cc(C)c(CCN(CCCC)CCCC)c1O`, the GI50 with TK-10 renal is 3.03 µM; in the assay on OVCAR-5 ovarian, 3.26 µM; with SK-MEL-2 melanoma, 2.24 µM; with SR leukemia, 2.16 µM; in the assay with SK-OV-3 ovarian, 2.68 µM; with DU-145 prostate, 3.76 µM. Moreover, the GI50 was 2.24 µM in the assay with RPMI-8226 leukemia, 1.96 µM with COLO 205 colon, 3.24 µM in the assay on U251 CNS and 2.7 µM in the assay on HS 578T breast. Also, the TGI was > 100 µM in the assay with TK-10 renal; > 100 µM with OVCAR-5 ovarian; 5.78 µM in the assay on SK-MEL-2 melanoma; 12.7 µM in the assay on SR leukemia; 8.53 µM with SK-OV-3 ovarian; > 100 µM in the assay with DU-145 prostate. For the same compound, the TGI came to 7.13 µM in the assay with RPMI-8226 leukemia, 4.14 µM in the assay with COLO 205 colon, 42.6 µM with U251 CNS and 8.59 µM in the assay with HS 578T breast.
